These molecules were tested on HT-29 (assay: Inhibition of glucuronosyltransferase activity in the human colon cancer cell line HT-29 at 5 uM concentration).
Type: cell-based
Parameters: scale not given: the % may be the effect or the level left

First: CC(CC(O)C(=O)O)[C@H]1CC[C@H]2[C@@H]3CC[C@@H]4C[C@H](O)CC[C@]4(C)[C@H]3CC[C@]12C (stereo in doubt)
Second: CC(CCC(=O)O)[C@H]1CC[C@H]2[C@@H]3CC[C@@H]4C[C@@H](O)CC[C@]4(C)[C@H]3CC[C@]12C (some centres not stated)
The Activity of the first is lower: 34.9% for the first, 86.9% for the second.

Going from CC(CCC(=O)O)[C@H]1CC[C@H]2[C@@H]3C(=O)C[C@@H]4C[C@H](O)CC[C@]4(C)[C@H]3CC(=O)[C@]12C (some centres not stated) to CC(CCC(=O)O)[C@H]1CC[C@H]2[C@@H]3CC[C@@H]4C[C@H](O)CC[C@]4(C)[C@H]3CC(=O)[C@]12C (some centres not stated), the Activity falls from 100% to 36.1%.

Compared with C[C@H](CCC(=O)O)[C@H]1CC[C@H]2[C@@H]3CC[C@@H]4C[C@H](O)CC[C@]4(C)[C@H]3CC[C@]12C, C[C@H](CCC(=O)O)[C@H]1CC[C@H]2[C@@H]3CCC4CC(O)CC[C@]4(C)[C@H]3CC[C@]12C (single isomer, unassigned) is higher in Activity: 25.3% for the first, 46.8% for the second.

Compared with C[C@@H](CCC(=O)O)[C@H]1CC[C@H]2[C@@H]3[C@H](O)[C@@H](O)[C@@H]4C[C@H](O)CC[C@]4(C)[C@H]3CC[C@]12C, CC(CCC(=O)O)[C@H]1CC[C@H]2[C@@H]3[C@H](O)[C@H](O)[C@@H]4C[C@H](O)CC[C@]4(C)[C@H]3CC[C@]12C (some centres not stated) is lower in Activity: 100% for the first, 73.9% for the second.

Compared with CC(CCC(=O)O)C1CCC2C3C=CC4C[C@H](O)CCC4(C)C3CCC12C (some centres not stated), CC(CCC(=O)O)C1CCC2C3C=CC4C[C@@H](O)CCC4(C)C3CCC12C (some centres not stated) is lower in Activity: 41.4% for the first, 39.1% for the second.

First: C[C@H](CCC(=O)O)[C@H]1CC[C@H]2[C@@H]3CC(O)[C@@H]4C[C@H](O)CC[C@]4(C)[C@H]3CC[C@]12C (single isomer, unassigned)
Second: C[C@H](CCC(=O)O)[C@H]1CC[C@H]2[C@@H]3[C@H](O)C[C@@H]4C[C@H](O)CC[C@]4(C)[C@H]3CC[C@]12C
The Activity of the first is higher: 75.2% for the first, 38.4% for the second.

Compared with CC(CCC(=O)O)[C@H]1CC[C@H]2[C@@H]3[C@H](O)C[C@@H]4C[C@H](O)CC[C@]4(C)[C@H]3C[C@@H](O)[C@]12C (some centres not stated), C[C@H](CCC(=O)O)[C@H]1CC[C@H]2[C@@H]3CC[C@@H]4C[C@H](O)CCC4(C)[C@H]3CC(O)[C@]12C (single isomer, unassigned) is lower in Activity: 98.3% for the first, 48% for the second.

Going from CC(CCC(=O)O)[C@H]1CC[C@H]2[C@@H]3C(=O)C[C@@H]4C[C@H](O)CC[C@]4(C)[C@H]3CC[C@]12C (some centres not stated) to CC(CCC(=O)O)[C@H]1CC[C@H]2[C@@H]3CC(=O)[C@@H]4C[C@H](O)CC[C@]4(C)[C@H]3CC[C@]12C (some centres not stated), the Activity falls from 51.1% to 28.1%.

Compared with CC(CCCCC(=O)O)[C@H]1CC[C@H]2[C@@H]3CC[C@@H]4C[C@H](O)CC[C@]4(C)[C@H]3CC[C@]12C (some centres not stated), CC(CCCO)[C@H]1CC[C@H]2[C@@H]3CC[C@@H]4C[C@H](O)CC[C@]4(C)[C@H]3CC[C@]12C (some centres not stated) is higher in Activity: 41.9% for the first, 72.8% for the second.

First: CC(CCC(C(=O)O)C(=O)O)[C@H]1CC[C@H]2[C@@H]3CC[C@@H]4C[C@H](O)CC[C@]4(C)[C@H]3CC[C@]12C (some centres not stated)
Second: CC(CC(O)C(=O)O)[C@H]1CC[C@H]2[C@@H]3CC[C@@H]4C[C@H](O)CC[C@]4(C)[C@H]3CC[C@]12C (single isomer, unassigned)
The Activity of the first is higher: 74.3% for the first, 55.4% for the second.

Compared with C[C@H](CCC(=O)O)[C@H]1CC[C@H]2[C@@H]3CC[C@@H]4CCCC[C@]4(C)[C@H]3CC[C@]12C, CC(CCC(=O)O)[C@H]1CC[C@H]2[C@@H]3CC[C@@H]4CC(=O)CC[C@]4(C)[C@H]3CC[C@]12C (some centres not stated) is lower in Activity: 92% for the first, 46% for the second.

Going from CC(CCC(=O)O)[C@H]1CC[C@H]2[C@@H]3[C@@H](O)[C@H](O)[C@@H]4C[C@H](O)CC[C@]4(C)[C@H]3CC[C@]12C (some centres not stated) to C[C@H](CCC(=O)O)[C@H]1CC[C@H]2[C@@H]3[C@@H](O)C[C@@H]4C[C@H](O)CC[C@]4(C)[C@H]3CC[C@]12C, the Activity falls from 78.5% to 73.3%.

Going from CC(CC(O)C(=O)O)[C@H]1CC[C@H]2[C@@H]3CC[C@@H]4C[C@H](O)CC[C@]4(C)[C@H]3CC[C@]12C (mixture of isomers) to CC(CCCOP(=O)(O)O)[C@H]1CC[C@H]2[C@@H]3CC[C@@H]4C[C@H](O)CC[C@]4(C)[C@H]3CC[C@]12C (some centres not stated), the Activity rises from 40% to 74%.

CC(CCC(=O)O)[C@H]1CC[C@H]2[C@@H]3CC[C@@H]4C[C@@H](O)CC[C@]4(C)[C@H]3C[C@@H](O)[C@]12C (some centres not stated) was tested, and the Activity was 46.4%.

— ChEMBL document CHEMBL1129724, “Inhibitory potency of lithocholic acid analogs and other bile acids on glucuronosyltransferase activity in a colon cancer cell line” (Bioorg Med Chem Lett, 1996)
